Reference: EP0574808A1, “Amidine-biphenyl derivatives, process for their production & medical preparation containing them” (Dr. Karl Thomae GmbH, priority 1992, dated 1993)

Tested on: Collagen-induzierte Thrombozytenaggregation
Assay: Ex vivo inhibition of collagen-induced platelet aggregation after oral administration (Born and Cross photometric method)
Conditions: oral 3 mg/kg, suspended in Natrosol; Rhesusaffen; Collagen 2 µg/ml in platelet-rich plasma
Source text: Beispielsweise wurden die Verbindungen der allgemeinen Formel I auf ihre biologischen Wirkungen wie folgt untersucht: Die Hemmung der Thrombozytenaggregation nach oraler Gabe der Prüfsubstanz wird ex vivo an Rhesusaffen ermittelt.
Direkt vor der oralen Verabreichung der in Natrosol suspendierten Prüfsubstanz wird den Tieren eine Blutprobe aus der Kubitalvene als Referenzwert entnommen. Zu definierten Zeiten nach der Substanzgabe werden erneut Blutproben gewonnen und wie folgt untersucht.
Das mit 3,14% Natriumcitrat im Volumenverhältnis 1:10 versetzte Vollblut wird mit 200 g für 15 Minuten zentrifugiert. Der Überstand an plättchenreichem Plasma wird vorsichtig abgehoben. Aus dem erythrozytenreichen Sediment wird durch Zentrifugation mit 4000 g für 10 Minuten das plättchenarme Plasma als Überstand gewonnen.
Die mit Collagen (Hormonchemie, München; 2 µg/ml Endkonzentration im plättchenreichen Plasma) ausgelöste Thrombozytenaggregation in diesen ex vivo Proben wird nach der Methode von Born und Cross (J. Physiol. 170, 397 (1964)) photometrisch gemessen. Die nach Collagenstimulation gemessene größte Lichtdurchlässigkeit des plättchenreichen Plasmas wird mit dem Referenzwert verglichen, um die Hemmung der Aggregation zu den verschiedenen Zeitpunkten der Blutentnahme nach Substanzgabe relativ zum Referenzwert zu bestimmen.

Cl.N=C(N)c1ccc(-c2ccc(C(=O)N3CCC(CC(=O)OC4CCCCC4)CC3)cc2)cc1 [Beispiel 1, 4-Amidino-4'-[4-(cyclohexyloxycarbonylmethyl)-piperidinocarbonyl]-biphenyl-hydrochlorid]
Dauer der Hemmung der Collagen-induzierten Thrombozytenaggregation ex vivo: > 4 Stunden
